Earlier results on two compounds are cited in patent publication US9533949B2, “Processes for the preparation of 3-alkyl indoles” (APOTEX PHARMACHEM INC., priority 2012, dated 2017).

A word on the IC50: it is the concentration needed to halve the response being measured.

One data set has as its target D2 receptor (Homo sapiens, UniProt P14416). Conditions: selectivity to other GPCRs.
Data set [1] concerns the target T1, insulin-like growth factor-I receptor (IGF-1R) (Homo sapiens, UniProt P08069). As to conditions: allosteric inhibitor.
Data set [2] deals with T1, insulin-like growth factor-I receptor (IGF-1R). Conditions: allosteric inhibitor. The source holds these as a separate data set.
The next data set addresses insulin receptor (Homo sapiens, UniProt P06213).

T1 sequence (P08069 31-1367, species assumed): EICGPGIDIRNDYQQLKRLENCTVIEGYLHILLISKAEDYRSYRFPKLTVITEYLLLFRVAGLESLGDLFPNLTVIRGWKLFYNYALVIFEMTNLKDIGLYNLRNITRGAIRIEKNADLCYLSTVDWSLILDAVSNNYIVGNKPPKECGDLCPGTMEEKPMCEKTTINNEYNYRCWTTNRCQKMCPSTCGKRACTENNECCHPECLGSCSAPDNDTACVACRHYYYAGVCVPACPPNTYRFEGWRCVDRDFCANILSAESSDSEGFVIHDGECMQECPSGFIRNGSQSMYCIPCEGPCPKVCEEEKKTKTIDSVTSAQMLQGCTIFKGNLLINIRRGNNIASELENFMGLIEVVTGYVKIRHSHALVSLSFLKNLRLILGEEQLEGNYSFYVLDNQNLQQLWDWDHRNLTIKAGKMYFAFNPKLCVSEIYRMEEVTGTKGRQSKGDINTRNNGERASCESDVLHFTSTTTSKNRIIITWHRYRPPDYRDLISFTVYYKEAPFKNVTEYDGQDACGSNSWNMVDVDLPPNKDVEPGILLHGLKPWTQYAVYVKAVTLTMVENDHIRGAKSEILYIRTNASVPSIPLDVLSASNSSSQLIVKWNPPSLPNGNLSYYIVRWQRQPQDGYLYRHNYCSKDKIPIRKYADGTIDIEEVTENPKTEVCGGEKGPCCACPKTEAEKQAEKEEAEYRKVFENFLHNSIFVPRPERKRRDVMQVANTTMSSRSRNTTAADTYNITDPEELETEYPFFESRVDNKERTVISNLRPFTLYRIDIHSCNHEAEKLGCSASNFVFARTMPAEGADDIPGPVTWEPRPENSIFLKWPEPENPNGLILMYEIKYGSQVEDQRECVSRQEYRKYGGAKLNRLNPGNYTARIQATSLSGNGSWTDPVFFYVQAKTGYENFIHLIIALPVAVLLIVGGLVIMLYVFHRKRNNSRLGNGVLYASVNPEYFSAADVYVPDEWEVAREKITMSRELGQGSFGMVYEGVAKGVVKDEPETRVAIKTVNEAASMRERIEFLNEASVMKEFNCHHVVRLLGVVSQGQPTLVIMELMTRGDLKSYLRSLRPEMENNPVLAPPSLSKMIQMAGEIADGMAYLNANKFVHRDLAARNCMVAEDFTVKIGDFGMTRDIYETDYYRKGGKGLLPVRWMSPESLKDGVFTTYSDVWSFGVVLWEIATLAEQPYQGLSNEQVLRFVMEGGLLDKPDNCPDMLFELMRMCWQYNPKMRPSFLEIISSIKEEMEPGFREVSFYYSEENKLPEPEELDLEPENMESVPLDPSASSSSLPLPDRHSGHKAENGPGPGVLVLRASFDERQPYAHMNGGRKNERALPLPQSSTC
Chain of insulin receptor (P06213 28-1382, species assumed): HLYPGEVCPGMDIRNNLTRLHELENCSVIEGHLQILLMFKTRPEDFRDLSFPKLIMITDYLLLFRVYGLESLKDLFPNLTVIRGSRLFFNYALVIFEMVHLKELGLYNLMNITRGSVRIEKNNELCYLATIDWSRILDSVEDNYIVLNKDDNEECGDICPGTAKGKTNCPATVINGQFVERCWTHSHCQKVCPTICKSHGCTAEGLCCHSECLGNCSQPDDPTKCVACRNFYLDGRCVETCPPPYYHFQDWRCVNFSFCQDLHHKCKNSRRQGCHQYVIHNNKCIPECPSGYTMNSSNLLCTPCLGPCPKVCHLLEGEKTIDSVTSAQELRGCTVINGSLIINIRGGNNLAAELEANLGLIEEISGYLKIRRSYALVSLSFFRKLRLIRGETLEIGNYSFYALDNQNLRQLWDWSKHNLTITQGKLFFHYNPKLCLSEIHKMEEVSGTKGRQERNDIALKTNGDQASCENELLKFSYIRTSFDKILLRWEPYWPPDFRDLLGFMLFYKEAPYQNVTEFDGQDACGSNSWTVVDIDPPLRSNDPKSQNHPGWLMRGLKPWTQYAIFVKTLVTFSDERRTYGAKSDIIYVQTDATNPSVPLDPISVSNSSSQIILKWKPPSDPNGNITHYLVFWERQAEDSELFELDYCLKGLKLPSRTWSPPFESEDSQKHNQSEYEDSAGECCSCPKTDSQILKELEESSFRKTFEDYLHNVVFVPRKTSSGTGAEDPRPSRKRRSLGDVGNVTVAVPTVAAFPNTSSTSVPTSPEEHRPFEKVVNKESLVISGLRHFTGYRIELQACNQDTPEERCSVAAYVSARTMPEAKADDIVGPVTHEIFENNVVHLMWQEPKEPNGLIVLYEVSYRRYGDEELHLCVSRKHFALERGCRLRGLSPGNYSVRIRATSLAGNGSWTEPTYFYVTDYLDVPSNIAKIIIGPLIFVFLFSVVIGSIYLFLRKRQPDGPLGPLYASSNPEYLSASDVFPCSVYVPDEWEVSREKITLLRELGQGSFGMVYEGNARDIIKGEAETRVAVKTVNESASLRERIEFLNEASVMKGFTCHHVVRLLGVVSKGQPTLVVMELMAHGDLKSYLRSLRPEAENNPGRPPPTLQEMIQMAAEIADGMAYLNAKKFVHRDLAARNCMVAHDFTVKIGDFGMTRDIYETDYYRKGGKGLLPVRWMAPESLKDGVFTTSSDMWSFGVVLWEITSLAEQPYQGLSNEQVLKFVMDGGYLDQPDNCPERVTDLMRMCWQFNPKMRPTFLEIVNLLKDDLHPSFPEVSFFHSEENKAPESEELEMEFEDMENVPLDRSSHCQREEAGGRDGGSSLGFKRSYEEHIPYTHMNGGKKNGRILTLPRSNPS
Chain of D2 receptor (P14416 whole entry): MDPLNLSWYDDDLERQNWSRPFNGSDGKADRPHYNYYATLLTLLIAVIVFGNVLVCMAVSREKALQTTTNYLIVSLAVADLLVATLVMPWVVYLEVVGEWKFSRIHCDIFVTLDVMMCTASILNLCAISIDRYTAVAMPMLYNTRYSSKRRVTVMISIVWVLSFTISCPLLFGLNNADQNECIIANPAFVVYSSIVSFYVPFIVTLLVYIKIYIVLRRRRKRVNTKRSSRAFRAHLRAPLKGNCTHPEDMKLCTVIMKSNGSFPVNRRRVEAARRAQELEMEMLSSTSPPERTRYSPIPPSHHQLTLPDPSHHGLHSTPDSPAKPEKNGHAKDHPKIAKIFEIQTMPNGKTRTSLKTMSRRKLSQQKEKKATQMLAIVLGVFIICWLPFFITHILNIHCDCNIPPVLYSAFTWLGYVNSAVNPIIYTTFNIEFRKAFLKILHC

Regarding `N#Cc1ccc2[nH]cc(CCCCN3CCN(c4ccc5oc(C(N)=O)cc5c4)CC3)c2c1` [vilazodone, 5-{4-[4-(5-Cyano-3-indolyl)butyl]-1-piperazinyl}benzofuran-2-carboxamide], at D2 receptor, the IC50 is 666 nM.
For `N#Cc1ccc2[nH]cc(CCCCN3CCC(NC(=O)c4cccc5c(C#N)c[nH]c45)CC3)c2c1` [compound 10, 3-Cyano-1H-indole-7-carboxylic acid {1-[4-(5-cyano-1H-indol-3-yl)butyl]piperidin-4-yl}amide], the “biochemical IGF-1R activity” value in data set [1] is given as “nanomolar”. In addition, in data set [2], the “cellular IGF-1R activity” value is “micromolar”. At insulin receptor, the “no relevant interference with cellular insulin receptor signaling up to” value is > 30 µM.
